Assay results as given in article PMC6681416, “Novel Derivatives of Deoxycholic Acid Bearing Linear Aliphatic Diamine and Aminoalcohol Moieties and their Cyclic Analogs at the C3 Position: Synthesis and Evaluation of Their In Vitro Antitumor Potential” (Molecules, 2019).

Experiments:
RAW264.7 macrophages = experiment: MTT cytotoxicity assay, RAW264.7; format: cell-based, murine
Excerpt: (§1) According to our previous data and data published by other research groups, chemical transformations of bile acids can greatly improve their antitumor potential. Thus, as the first step of evaluation of the biological activities of our novel DCA derivatives we assessed their effects on tumor cell viability. The cytotoxicity of the compounds was investigated with respect to a panel of cultured cell lines, including human duodenal HuTu-80, hepatocellular HepG2, cervical KB-3-1 and lung A549 carcinomas as well as murine macrophage RAW264.7 and non-transformed human fibroblasts hFF3 by MTT assay.
(§2) Human duodenal carcinoma HuTu-80 cells, human hepatocellular carcinoma HepG2 cells, human cervical carcinoma KB-3-1 cells, human lung carcinoma A549 cells were obtained from the Russian Cell Culture Collection (Institute of Cytology, RAS, St. Petersburg, Russia). Non-transformed human fibroblasts hFF3 were kindly provided by Dr. Olga Koval (Institute of Chemical Biology and Fundamental Medicine, SB RAS, Novosibirsk, Russia). RAW264.7 macrophages were kindly provided by Prof. Dr. Dmitry Kuprash (Engelhardt Institute of Molecular Biology, RAS, Moscow, Russia). The cells were cultured in DMEM (Sigma-Aldrich Inc., St. Louis, MO, USA) supplemented with 10% (v/v) heat-inactivated fetal bovine serum (FBS) (BioloT, St. Petersburg, Russia), 100 U/mL penicillin (ICN Biomedicals Inc., Costa Mesa, CA, USA), 100 µg/mL streptomycin and 0.25 µg/mL amphotericin; additionally, in the case of RAW264.7 cells, concentration of glucose in the medium was increased up to 4.5 mg/mL. The cells were incubated at 37 °C in 5% CO2 and 95% air (hereafter referred to as standard conditions). DCA derivatives were dissolved in DMSO to yield stock solutions of 10 mmol/L and stored at −20 °C prior to use.
(§3) Cells were seeded in triplicate in 96-well plates at a density of 5 × 10^3 (HuTu-80, HepG2, KB-3-1, hFF3), 10^4 (A549) or 5 × 10^4 (RAW264.7) cells per well. Cells were incubated under standard conditions for 24 h and then they were treated with varying doses of investigated derivatives for subsequent 24 h. Then 10 µL of MTT solution (5 mg/mL) were added to each wells and cells were incubated for an additional 2 h under standard conditions. The crystals of formazan forming within live cells were solubilized with DMSO and the absorbance was measured in a Multiscan RC plate reader (Thermo LabSystems, Helsinki, Finland) at a test and reference wavelengths of 570 nm and 620 nm, respectively. […] To perform SAR analysis, hierarchical clustering of compounds based on their IC50 values was fulfilled with Euclidean distance by using the Morpheus tool (https://software.broadinstitute.org/morpheus/), a platform designed for visualization and analysis of data in a matrix format. Heatmap, containing compounds’ SI values, were constructed by using the Excel 2010 software (Microsoft, Redmond, WA, USA). In order to reveal whether ROS participate in the induction of cell death by compound 9, HuTu-80 cells cultured in 96-well plate were pretreated by NAC at 2 mM for 1 h. Thereafter, the medium was replaced by fresh medium with compound 9 at 8 µM and the cells were incubated with subsequent 24 h under standard conditions. After this time period, the curves of cytotoxicity of compound 9 in the presence or absence of NAC were compared.

HuTu-80 cells [1] = experiment: cells; format: cell-based
Excerpt: as §1, §2, §3

HuTu-80 cells [2] = experiment: Mitochondrial membrane potential (JC-1); format: cell-based, human; conditions: 8 µM, control 18.7%
Method: Next, in order to identify whether the compound 9 induces apoptotic cell death by triggering mitochondrial dysfunction, we analyzed its effect on mitochondrial membrane potential (Δψm) in HuTu-80 cells by using fluorescent cationic JC-1 dye (Figure 2B).
The mitochondrial-specific cationic dye JC-1 (Molecular Probes, Invitrogen, Carlsbad, CA, USA) accumulating in the mitochondria by potential-dependent manner was used to detect the effect of compound 9 on ∆ψM. Briefly, HuTu-80 cells were seeded in 6-well plates at a density of 5 × 10^5 cells/well for 24 h. Then cells were treated by compound 9 at 8 µM for 6, 18 or 24 h, collected by trypsinization, washed with PBS, and JC-1 (5 µg/mL) was added to the cells. After 30 min of incubation at 37 °C, the cells were centrifuged, washed with PBS and analyzed using NovoCyte Flow Cytometer (ACEA Biosciences Inc.).

[3] = test system: non-transformed human fibroblasts hFF3; experiment: MTT cytotoxicity assay, hFF3; format: cell-based; conditions: HFF-3, 24 h, read-out: IC50 hFF3 (fibroblast)
Excerpt: as §1
as §2, with “DCA derivatives were dissolved in DMSO to yield stock solutions of 10 mmol/L and stored at −20 °C prior to use.” left out
Cells were seeded in triplicate in 96-well plates at a density of 5 × 10^3 (HuTu-80, HepG2, KB-3-1, hFF3), 10^4 (A549) or 5 × 10^4 (RAW264.7) cells per well. […] The crystals of formazan forming within live cells were solubilized with DMSO and the absorbance was measured in a Multiscan RC plate reader (Thermo LabSystems, Helsinki, Finland) at a test and reference wavelengths of 570 nm and 620 nm, respectively. […]

[4] = test system: caspase-3/7 in HuTu-80 cells; experiment: Caspase-3/-7 activity (Caspase-Glo 3/7); format: cell-based, human; conditions: 8 µM, 18 h and 24 h time points
Method: In the next step of the study our attention was focused on understanding the ability of compound 9 to activate caspases—a family of cysteine proteases, being critical mediators of apoptosis. In order to perform this, we evaluated the effect of compound 9 on activity of key executioner caspases-3 and -7 responsible for proteolytic cleavage of many proteins in the culminating step of cell death.
The caspase-3/-7 activity in HuTu-80 cells was assessed by using Caspase-Glo® 3/7 Assay kit (Promega, Madison, WI, USA) according to the manufacturer’s instructions. Briefly, the cells were seeded in white-walled 96-well plates at a density of 10^4 cells/well for 24. After incubation, cells were treated with compound 9 at 8 µM for 6, 18 or 24 h and then 100 µL of Caspase-Glo® 3/7 reagent was added to each well. The plate was carefully shaken for 30 sec on a plate mixer and afterwards incubated for 30 min at room temperature in the dark. The luminescence was detected using CLARIOstar plate reader (BMG Labtech, Ortenberg, Germany).

[5] = test system: NO synthesis by IFNγ-activated RAW264.7 cells; experiment: Inhibition of NO production by stimulated macrophages (Griess); format: cell-based, murine; conditions: Mus musculus, RAW264.7, 24 h, read-out: IC50NO
Method: RAW264.7 cells were seeded in triplicate in 96-well plates at a density of 5 × 10^4 cells/well and incubated under standard conditions for 24 h. The cells were treated with 20 ng/mL of murine recombinant IFNγ (GIBCO, Gaithersburg, MD, USA), with or without (control) compounds at various concentrations for 24 h. The level of NO production was evaluated by determining the nitrite concentration in culture medium with a Griess Reagent System (Promega, Madison, WI, USA). The IC50^NO value was calculated as the derivative concentration required to decrease NO production to 50% of the non-treated control.

COC(=O)CC[C@@H](C)[C@H]1CC[C@H]2[C@@H]3CC[C@@H]4CC(O)(CNCCCO)CC[C@]4(C)[C@H]3CC(=O)[C@]12C (stereo partly drawn) [Compound 9, Methyl 3-hydroxy-3-((3-hydroxypropylamino)methyl)-12-oxo-5β-cholan-24-oate]
IC50 (RAW264.7 macrophages; Mus musculus, RAW264.7, MTT, 24 h, read-out: IC50 RAW264.7 (macrophage)): 19.3 ± 3.7 µM | Selectivity index RAW264 (RAW264.7 macrophages; ratio IC50 hFF3 / IC50 RAW264.7): 1.7 | IC50 (HuTu-80 cells [1]; Homo sapiens, HuTu80, MTT, 24 h, read-out: IC50 HuTu-80 (duodenum)): 4 ± 0.5 µM | Selectivity index HuTu-80 (HuTu-80 cells [1]; ratio IC50 hFF3 / IC50 HuTu-80): 8.3 | cells with collapsed membrane potential (Low MMP) (HuTu-80 cells [2]; 6 h): 38.2% | cells with collapsed membrane potential (Low MMP) (HuTu-80 cells [2]; 18 h): 68.6% | cells with collapsed membrane potential (Low MMP) (HuTu-80 cells [2]; 24 h): 78.8% | IC50 [3]: 33.3 ± 1.2 µM | caspase-3/7 activity [4]: significantly increased | IC50 [5]: > 10 µM
